Experiments:
GP2d cells (KRAS G12D) = experiment: Cell-based pERK HTRF assay in GP2d cell (Biological Example 2); details: GP2d (KRAS G12D) cells
In short: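 60 min compound, 0.25% DMSO, 9-pt half-log curve from 1 μM or 100 nM; DMEM/10% FBS.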

[1] = molecular target: T1, Avi-KRAS G12D (1-169) GppNHp/RAF1 RBD-3xFLAG (52-151) (Homo sapiens, UniProt P01116, G12D); experiment: Raf1-KRAS G12D-GppNHP disruption HTRF assay (Biological Example 1); type: binding
T1 construct: Avi-KRAS G12D (1-169)
In short: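 Percent activity versus DMSO (100%) was derived from HTRF signal after KRAS–RAF1 RBD protein mix was incubated 1 h at room temperature with shaking and detection reagents were added for a further 1 h.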

[2] = molecular target: T2, Avi-KRAS WT (2-169) GTP/RAF1 RBD-3xFLAG (51-131) (Homo sapiens, UniProt P01116); experiment: Raf1-KRAS WT-GTP disruption HTRF assay (Biological Example 3); type: binding; details: KRAS WT, GTP-loaded
T2 construct: Avi-KRAS WT (2-169)
In short: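 An HTRF assay measured disruption of 50 nM Avi-KRAS (2-169)-GTP (WT, G12C, G12D or G12V) bound to RAF1 RBD-3xFLAG (51-131). Buffer was Tris pH 7.5 with 5 mM MgCl2 and 10% DMSO. Compounds (30–0.005 μM, 3-fold, 10 points) were incubated 1 h at room temperature, and activity is given as % of DMSO.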

[3] = KRAS G12D, GppNHp-loaded, class symbols
[4] = KRAS G12D, GppNHp-loaded, Table 11

T1 sequence (P01116 1-169 isoform P01116-2 G12D): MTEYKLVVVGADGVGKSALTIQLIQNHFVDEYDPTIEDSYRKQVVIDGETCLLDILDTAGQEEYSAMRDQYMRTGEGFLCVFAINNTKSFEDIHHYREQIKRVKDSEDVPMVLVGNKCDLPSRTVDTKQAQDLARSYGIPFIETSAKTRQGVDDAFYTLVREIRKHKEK
T2 sequence (P01116 2-169 isoform P01116-2): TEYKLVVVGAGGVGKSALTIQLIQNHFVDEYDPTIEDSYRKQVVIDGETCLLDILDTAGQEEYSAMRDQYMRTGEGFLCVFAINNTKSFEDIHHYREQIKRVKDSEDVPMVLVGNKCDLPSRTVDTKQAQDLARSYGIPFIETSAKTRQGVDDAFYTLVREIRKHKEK

| IC50 (GP2d cells (KRAS G12D); GP2d) [µM] | IC50 (GP2d cells (KRAS G12D); GP2d, pERK HTRF, class symbols) [µM] | IC50 [1, 3] [µM] | IC50 [2] [µM] | IC50 (GP2d cells (KRAS G12D); GP2d, pERK HTRF) [µM] | IC50 ([1]; KRAS G12D-GppNHp/RAF1 RBD HTRF) [µM] | IC50 (GP2d cells (KRAS G12D)) [µM] | IC50 (GP2d cells (KRAS G12D); pERK HTRF, class symbols) [µM] | IC50 [1, 4] [µM] | IC50 (GP2d cells (KRAS G12D); pERK HTRF) [µM] | Structure (SMILES) |
| --- | --- | --- | --- | --- | --- | --- | --- | --- | --- | --- |
| < 0.1 | < 0.1 | < 0.1 | 0.1 to 1 |  |  |  |  |  |  | CCN(c1nc(OC[C@@]23CCCN2C[C@H](F)C3)nc2c(F)c(-c3ccc(F)c4sc(N)c(C#N)c34)c(C(F)(F)F)cc12)[C@H]1CCN(C(=O)CC(F)F)C1 (atropisomer, axis not shown) [Compound 611] |
| < 0.1 | < 0.1 | < 0.1 | 0.1 to 1 |  |  |  |  |  |  | CCN1C[C@@H](N(C)c2nc(OC[C@@]34CCCN3C[C@H](F)C4)nc3c(F)c(-c4ccc(F)c5sc(N)c(C#N)c45)c(C(F)(F)F)cc23)CC1=O (atropisomer, axis not shown) [Compound 636] |
| < 0.1 | < 0.1 | < 0.1 | 0.1 to 1 |  |  |  |  |  |  | CCN(c1nc(OC[C@@]23CCCN2C[C@H](F)C3)nc2c(F)c(-c3ccc(F)c4sc(N)c(C#N)c34)c(C(F)(F)F)cc12)[C@H]1CCN(C(=O)N2CCN(C(C)=O)CC2)C1 (atropisomer, axis not shown) [Compound 619] |
| < 0.1 | < 0.1 | < 0.1 | 0.1 to 1 |  |  |  |  |  |  | CCN(c1nc(OC[C@@]23CCCN2C[C@H](F)C3)nc2c(F)c(-c3ccc(F)c4sc(N)c(C#N)c34)c(C(F)(F)F)cc12)[C@H]1C[C@H](C)N(C(=O)OC)C1 (atropisomer, axis not shown) [Compound 704] |
| < 0.1 |  |  | 0.1 to 1 | < 0.1 | 0.1 to 1 |  |  |  |  | [2H]C1([2H])O[C@@H]2C[C@H]1N(c1nc(OC[C@@]34CCCN3C[C@H](F)C4)nc3c(F)c(-c4ccc(F)c5sc(N)c(C#N)c45)c(C(F)(F)F)cc13)C2 [Compound 371] |
| < 0.1 | < 0.1 | < 0.1 | 0.1 to 1 |  |  |  |  |  |  | C[C@H](c1cccnc1N)N(C)c1nc(OC[C@@]23CCCN2C[C@H](F)C3)nc2c(F)c(-c3ccc(F)c4sc(N)c(C#N)c34)c(C(F)(F)F)cc12 (atropisomer, axis not shown) [Compound 600] |
| < 0.1 |  |  | 0.1 to 1 | < 0.1 | 0.1 to 1 |  |  |  |  | CC(=O)N1C[C@H](N(C)c2nc(OC[C@@]34CCCN3C[C@H](F)C4)nc3c(F)c(-c4ccc(F)c5sc(N)c(C#N)c45)c(C(F)(F)F)cc23)C[C@@H]1C [Compound 298] |
| < 0.1 | < 0.1 | < 0.1 | 1 to 10 |  |  |  |  |  |  | CC(=O)N1CC[C@H](N(c2nc(OC[C@@]34CCCN3C[C@H](F)C4)nc3c(F)c(-c4ccc(F)c5sc(N)c(C#N)c45)c(C(F)(F)F)cc23)C2CC2)C1 (atropisomer, axis not shown) [Compound 608] |
| < 0.1 | < 0.1 | < 0.1 | 0.1 to 1 |  |  |  |  |  |  | C=C(C)C(=O)N1CC[C@H](N(CC)c2nc(OC[C@@]34CCCN3C[C@H](F)C4)nc3c(F)c(-c4ccc(F)c5sc(N)c(C#N)c45)c(C(F)(F)F)cc23)C1 (atropisomer, axis not shown) [Compound 673] |
| < 0.1 |  |  | 0.1 to 1 | < 0.1 | 0.1 to 1 |  |  |  |  | CCN(c1nc(OC[C@@]23CCCN2C[C@H](F)C3)nc2c(F)c(-c3ccc(F)c4sc(N)c(C#N)c34)c(C(F)(F)F)cc12)[C@@H]1CCN(C(=O)C2CC2)C1 [Compound 329] |
|  |  | < 0.1 | 0.1 to 1 |  |  | < 0.1 | < 0.1 |  |  | CCN(c1nc(OCC23CCCN2CC(F)C3)nc2c(F)c(-c3ccc(F)c4sc(N)c(C#N)c34)c(C(F)(F)F)cc12)C1CC(C)N(C(=O)C2CC2(F)F)C1 (stereo not drawn) [Compound 732] |
| < 0.1 | < 0.1 | 1 to 10 | > 10 |  |  |  |  |  |  | N#Cc1c(N)sc2c(F)ccc(-c3c(C(F)(F)F)cc4c(N(C5CC5)[C@H]5CCS(=O)(=O)C5)nc(OC[C@@]56CCCN5C[C@H](F)C6)nc4c3F)c12 [Compound 702] |
| < 0.1 |  |  | 0.1 to 1 | < 0.1 |  |  |  | < 0.1 |  | CCN(c1nc(OC[C@@]23CCCN2C[C@H](F)C3)nc2c(F)c(-c3ccc(F)c4sc(N)c(C#N)c34)c(C(F)(F)F)cc12)[C@H]1CCN(C(C)=O)C1 [Compound 262] |
| < 0.1 | < 0.1 | < 0.1 | 0.1 to 1 |  |  |  |  |  |  | CCN(c1nc(OC[C@@]23CCCN2C[C@H](F)C3)nc2c(F)c(-c3ccc(F)c4sc(N)c(C#N)c34)c(C(F)(F)F)cc12)[C@H]1CC(=O)N(C)C1 (atropisomer, axis not shown) [Compound 614] |
| < 0.1 | < 0.1 | 0.1 to 1 | 0.1 to 1 |  |  |  |  |  |  | CCN(c1nc(OC[C@@]23CCCN2C[C@H](F)C3)nc2c(F)c(-c3ccc(F)c4sc(N)c(C#N)c34)c(C(F)(F)F)cc12)[C@H]1CC(=O)N(CC(F)F)C1 (atropisomer, axis not shown) [Compound 613] |

The remaining lines, values behind:

| Structure (SMILES) | IC50 (GP2d cells (KRAS G12D); GP2d) [µM] | IC50 (GP2d cells (KRAS G12D); GP2d, pERK HTRF, class symbols) [µM] | IC50 [1, 3] [µM] | IC50 [2] [µM] | IC50 (GP2d cells (KRAS G12D); GP2d, pERK HTRF) [µM] | IC50 ([1]; KRAS G12D-GppNHp/RAF1 RBD HTRF) [µM] | IC50 (GP2d cells (KRAS G12D)) [µM] | IC50 (GP2d cells (KRAS G12D); pERK HTRF, class symbols) [µM] | IC50 [1, 4] [µM] | IC50 (GP2d cells (KRAS G12D); pERK HTRF) [µM] |
| --- | --- | --- | --- | --- | --- | --- | --- | --- | --- | --- |
| CCN(c1nc(OC[C@@]23CCCN2C[C@H](F)C3)nc2c(F)c(-c3ccc(F)c4sc(N)c(C#N)c34)c(C(F)(F)F)cc12)[C@H]1CCN(C(=O)c2ccns2)C1 (atropisomer, axis not shown) [Compound 726] | < 0.1 | < 0.1 | < 0.1 | 0.1 to 1 |  |  |  |  |  |  |
| CCN(c1nc(OC[C@@]23CCCN2C[C@H](F)C3)nc2c(F)c(-c3ccc(F)c4sc(N)c(C#N)c34)c(C(F)(F)F)cc12)[C@H]1CCN(C(=O)C2CC2(F)F)C1 (stereo partly drawn) [Compound 581] | < 0.1 | < 0.1 | < 0.1 | 0.1 to 1 |  |  |  |  |  |  |
| CCN(c1nc(OC[C@@]23CCCN2C[C@H](F)C3)nc2c(F)c(-c3ccc(F)c4sc(N)c(C#N)c34)c(C(F)(F)F)cc12)[C@H]1C[C@H]2CCC(=O)N2C1 (atropisomer, axis not shown; (aR)) [Compound 573, 2-amino-4-((S)-4-(ethyl((2S,7aR)-5-oxohexahydro-1H-pyrrolizin-2-yl)amino)-8-fluoro-2-(((2R,7aS)-2-fluorotetrahydro-1H-pyrrolizin-7a(5H)-yl)methoxy)-6-(trifluoromethyl)quinazolin-7-yl)-7-fluorobenzo[b]thiophene-3-carbonitrile] | < 0.1 | < 0.1 | < 0.1 | ≤ 0.1 |  |  |  |  |  |  |
| C/C=C/C(=O)N1CC[C@H](N(CC)c2nc(OC[C@@]34CCCN3C[C@H](F)C4)nc3c(F)c(-c4ccc(F)c5sc(N)c(C#N)c45)c(C(F)(F)F)cc23)C1 (atropisomer, axis not shown) [Compound 674] | 0.1 to 1 | < 0.1 | < 0.1 | ≤ 0.1 |  |  |  |  |  |  |
| Cc1c(C(=O)N2CCOCC2)nn2c1CN(c1nc(OCC34CCCN3CC(F)C4)nc3c(F)c(-c4ccc(F)c5sc(N)c(C#N)c45)c(C(F)(F)F)cc13)CC2 (stereo not drawn) [Compound 741] | < 0.1 | < 0.1 | < 0.1 | 0.1 to 1 |  |  |  |  |  |  |
| CCN(c1nc(OC[C@@]23CCCN2C[C@H](F)C3)nc2c(F)c(-c3ccc(F)c4sc(N)c(C#N)c34)c(C(F)(F)F)cc12)[C@H]1C[C@H](C)N(C(=O)N2CC(OC)C2)C1 (atropisomer, axis not shown) [Compound 764] | < 0.1 | < 0.1 | < 0.1 | 0.1 to 1 |  |  |  |  |  |  |
| N#Cc1c(N)sc2c(F)ccc(-c3c(C(F)(F)F)cc4c(N5CCCC[C@@H](O)C5)nc(OC[C@@]56CCCN5C[C@H](F)C6)nc4c3F)c12 [Compound 286] | < 0.1 |  |  | 0.1 to 1 | < 0.1 | < 0.1 |  |  |  |  |
| CCN(c1nc(OC[C@@]23CCCN2C[C@H](F)C3)nc2c(F)c(-c3ccc(F)c4sc(N)c(C#N)c34)c(C(F)(F)F)cc12)[C@H]1C[C@@H]2CN(C)C(=O)N2C1 (atropisomer, axis not shown) [Compound 605] | < 0.1 | < 0.1 | < 0.1 | 0.1 to 1 |  |  |  |  |  |  |
| N#Cc1c(N)sc2c(F)ccc(-c3c(C(F)(F)F)cc4c(N5CCNS(=O)(=O)CC5)nc(OC[C@@]56CCCN5C[C@H](F)C6)nc4c3F)c12 [Compound 245] | < 0.1 |  |  | 0.1 to 1 | < 0.1 |  |  |  | < 0.1 |  |
| CCN(c1nc(OC[C@@]23CCCN2C[C@H](F)C3)nc2c(F)c(-c3ccc(F)c4sc(N)c(C#N)c34)c(C(F)(F)F)cc12)[C@H]1CCN(C(=O)C2CC2)C1 [Compound 331] | < 0.1 |  |  | 0.1 to 1 | < 0.1 | < 0.1 |  |  |  |  |
| N#Cc1c(N)sc2c(F)ccc(-c3c(C(F)(F)F)cc4c(N5CCOCC5)nc(OC[C@@]56CCCN5C[C@H](F)C6)nc4c3F)c12 (single isomer, unassigned) [Compound 198] | < 0.1 |  |  | 0.1 to 1 |  |  |  |  | 0.1 to 1 | < 0.1 |
| C[C@H]1Cn2nc(C(=O)N(C)C)cc2CN1c1nc(OC[C@@]23CCCN2C[C@H](F)C3)nc2c(F)c(-c3ccc(F)c4sc(N)c(C#N)c34)c(C(F)(F)F)cc12 (atropisomer, axis not shown) [Compound 610] | < 0.1 | < 0.1 | < 0.1 | 1 to 10 |  |  |  |  |  |  |

From US20260042764A1, “COMPOSITIONS AND METHODS FOR INHIBITION OF KRAS” (TheRas, Inc., priority 2022, published 2026)
